From patent US20130210034A1, “COMPLEX PHOSPHOPROTEIN ACTIVATION PROFILES” (BECKMAN COULTER, INC., priority 2005, published 2013)

Assays:
pSTAT5 = experiment: Cytokine-stimulated phosphorylation in AML cell populations (BM or PB of AML patients); assay type: cell-based, human
Experimental: To assess the signal transduction response after growth factor simulation, a series comprising two sets of tubes including about 3×10^6 cells/100 μL were incubated at 37° C. for 30 minutes. After this pre-incubation period, tubes with then processes with either a stimulant or inhibitor. […] To examine the effects of protein phosphorylation inhibition, tubes were incubated with an inhibitor cocktail comprising 100 μM/100 μL UO126, 1 μM/100 μL LY294002, and 1 μM/100 μL rapamycin. One unstimulated tube receiving no stimulant or inhibitor was processed to assess basal levels of phospho-protein expression. After stimulation the cells were immediately fixed in 10% formaldehyde solution at 37° C. Pre-labeling with CD13, CD16 and CD64 antibodies was carried out 20 minutes prior to formaldehyde fixation. After fixation, one set of tubes was permeabilized without methanol for pAKT, pERK and pS6 staining and the other for 80% methanol permeabilized for pSTAT3 and pSTAT5 staining. After permeablization, the cells were washed in PBS with 2% BSA and blocked by re-suspended in 75 μL of PBS comprising 25% heat inactivated normal mouse serum, 25% normal rabbit serum. To stain cells with fluorescent conjugated monoclonal antibodies, samples were incubated on ice for 45 minutes in 100 μL of an antibody staining solution including either: 1) CD15-Pacific Orange, CD34-Phycoerythrin-Texas Red, CD117-Phycoerythrin-Cyanin 5.5, CD45-Allophycocyanin-Alexa Fluor 750 (or CD45-Pacific Orange, in which case CD15-Pacific Orange was omitted), pS6-Pacific Blue, pERK-Alexa Fluor 488 and pAKT-Alexa Fluor 647 or 2) CD15-Pacific Orange, CD34-Phycoerythrin-Texas Red, CD117-Phycoerythrin-Cyanin 5.5, CD45-Allophycocyanin-Alexa Fluor 750 or CD45-Pacific Blue, pSTAT3-Alexa Fluor 488 and pSTAT5-Phycoerythrin. The stained cells were washed twice with ice cold PBS containing 2% BSA and centrifuged at 800 g for 6 minutes at 4° C. The supernatant was discarded and cells re-suspended in 250 μL of chilled wash buffer for data acquisition. Stained cells were examined using either GALIOS flow cytometer (Beckman Coulter) or CYAN ADP (Beckman Coulter) equipped with 488 nm, 405 nm and 635 nm lasers to detect the degree of fluorescence. Data were analyzed using FCS Express (De Novo Software, CA) analysis software.
Specific phosphoprotein expression of pERK, pS6, pAKT, pSTAT5, and pSTAT3 was examined in seven discrete phenotypically defined populations based on 7-color immunophenotyping (FIG. 1). The percent of responding (phosphorprotein positive) cells for each of these populations was determined from individual single parameter histograms based on a fixed integration region set on the inhibitor treated control at about 3% positives.
Using normal BM signaling profiles of Example 1 as comparison, analysis of 14 AML samples was carried out to identify differences in signaling responses. White blood cells from BM or peripheral blood (PB) samples were obtained from 14 diagnosed AML patients undergoing routine clinical flow cytometry analysis using IRB approved protocols. The AML patients included newly diagnosed AML, AMLs arising in a background of MDS, therapy related AMLs and previously diagnosed AML post therapy. The median age of the patients at diagnosis was 51 years (range: 29-75 years) and represented 5 female and 9 male patients. The median white blood cell was 6.4 million/mL (range: 0.9-106 M/mL) and the BM morphologic blast count was an average of 46% (range: 0%-90%).
Experiments performed to assess the signal transduction response after growth factor simulation were performed as described for Example 1.

lymphocytes = experiment: Cytokine response in lymphocytes from bone marrow samples of healthy donors (Example 4); assay type: cell-based, human; details: lymphocytes from healthy donor bone marrow (Example 4)
Experimental: To assess the signal transduction response after growth factor simulation, 100 to 200 μL of processed samples including about 2×10^6 WBC/100 μL were added to tubes and incubated at 37° C. for 30 minutes. For inhibition experiments, cells were incubated with 100 μM U0126, 1 μg/mL rapamycin, or both for at least 20 minutes prior to cytokine addition and in all cases for 30 min prior to formaldehyde addition. […] After stimulation the cells were immediately fixed by the addition of formaldehyde to a final concentration of 4% v/v and incubated for 10 minutes at room temperature. […]
First, doublets, aggregates, and debris were excluded by gating on single cell events in the SSC-Area versus SSC-Height histogram. […] Finally, these cells were further analyzed for cytokine-mediated increases in phosphorylation by constructing gates in the single parameter histograms (for positively and negatively stained events, i.e., for the phosphorylated and non-phosphorylated forms, respectively, of each protein) for pS6 (FIGS. 4D and 4G), pERK (FIGS. 4E and 4H), and pSTAT5 (FIGS. 4F and 4I). […] Following this gating scheme, data were analyzed by calculating the area under the curve (AUC), the frequency of positive-stained cells, and the median fluorescence intensity (MFI).

Molecule | pSTAT5, AML Sample (pSTAT5; patient AML2 (Example 3)) | pSTAT5, AML Sample (pSTAT5; patient AML5 (Example 3)) | pSTAT5, AML Sample (pSTAT5; patient AML6 (Example 3)) | pSTAT5, AML Sample (pSTAT5; patient AML8 (Example 3)) | pSTAT5, AML Sample (pSTAT5; patient AML13 (Example 3)) | pSTAT5, AML Sample (pSTAT5; patient AML14 (Example 3)) | Phosphorylation response in lymphocytes (lymphocytes)
Granulocyte-Macrophage Colony-Stimulating Factor [GM-CSF] | 14.6 | 2.0 | 2.5 | 10.6 | 14.6 | 4.7 | –
Stem Cell Factor [SCF] | – | – | – | – | – | – | lack of SCF's effect
FMS-Like Tyrosine Kinase 3 (FLT-3) ligand (protein, UniProt P49771 27-235, looked up) Fms-related tyrosine kinase 3 …: TQDCSFQHSPISSDFAVKIRELSDYLLQDYPVTVASNLQDEELCGGLWRLVLAQRWMERLKTVAGSKMQGLLERVNTEIHFVTKCAFQPPPSCLRFVQTNISRLLQETSEQLVALKPWITRQNFSRCLELQCQPDSSTLPPPWSPRPLEATAPTAPQPPLLLLLLLPVGLLLLAAAWCLHWQRTRRRTPRPGEQVPPVPSPQDLLLVEH | – | – | – | – | – | – | no response
